Results on two compounds are retold here after patent US10072122B2, “Carbonate polymer containing a functional group of disulfide five-membered ring in the side chain and application thereof” (BrightGene Bio-Medical Technology Co., Ltd, priority 2014, dated 2018).

Series [1] relates to B16 melanoma tumor. Nature of the series: biodistribution in mice bearing melanoma tumors. Format: in vivo, C57BL/6 mice. The settings on record: i.v. 10 mg/kg DOX. Here is the method:
Mice were intravenously injected with nanoparticle loaded drug and DOX (DOX was 10 mg/kg) when the tumor volume reached 100-200 mm^3 about two weeks. The mice were sacrificed at 6, 12 or 24 h and the tumor and organs of heart, liver, spleen, lung and kidney were collected, wet weighed, then 500 μL 1% triton was added, homogenized and extracted by 900 μL DMF solution (containing 1 mM HCl and 20 mM DTT). Taken the supernatant by centrifugation (20000 rpm, 20 min). The DOX level at each time was determined by fluorescence measurement.

The test system of series [2] is B16 melanoma tumor. Put plainly: therapeutic efficacy in mice bearing melanoma tumors. The format is in vivo, C57BL/6 mice. The settings on record: DOX 10 mg/kg.
Series [3] can be described thus: blood circulation of cross-linked nanoparticle loaded drug in mice. Format: in vivo, C57BL/6 mice. The settings on record: i.v. 10 mg/kg DOX. How it is done:
(§1) Mice were intravenously injected with nanoparticle loaded drug and free drug, and DOX was 10 mg/kg. 10 μL of blood was taken at different time points of 0, 0.25, 0.5, 1, 2, 4, 8, 12 and 24 h, and the weight of blood was calculated with the method of balance. The blood samples upon withdrawing were immediately dissolved in 100 μL 1% triton and 500 μL of extraction solution DMF (containing 1M HCl and 20 mM DTT). Taken the supernatant by centrifugation (20000 rpm, 20 min). The DOX level in the supernatant of each time was determined by fluorometry.

Series [4] can be described thus: blood circulation of targeting cross-linked vesicle loaded drug in mice. Format: in vivo, Balb/C mice. Conditions: i.v. 10 mg/kg DOX. How it is done: as §1, with “The vesicle was formed with different ratio of cRGD-PEG6k-P(CDC4.6k-co-TMC18.6k) and PEG5k-P(CDC4.9k-co-TMC19k). […] Mice” for “Mice”, “targeting vesicle” for “nanoparticle”, “drug cRGD20/CLPs, vesicle loaded drug CLPs, targeting decross-linked vesicle cRGD20/PEG-PTMC” for “drug”, “DOX.HCl as control (the” for “free drug, and”, “mg/kg).” for “mg/kg.”

Series [5] deals with B16 melanoma tumor. Put plainly: therapeutic efficacy of iRGD targeting cross-linked vesicles in mice bearing melanoma tumors. Format: in vivo, C57BL/6 mice. How it is done: The tumor size was measured every day using calipers from 0 to 20 day.
Series [6] can be described thus: biodistribution in mice bearing human glioma cells. The settings on record: Balb/C, mouse, tumor, iv, i.v. 10 mg/kg DOX, read-out: accumulation of DOX in tumor. Format: in vivo. How it is done: The mice were sacrificed at 4 h and the tumor and organs of heart, liver, spleen, lung and kidney were collected, wet weighed, then 500 μL 1% triton was added, homogenized and extracted by 900 μL DMF solution (containing 1 mM HCl and 20 mM DTT). Taken the supernatant by centrifugation (20000 rpm, 20 min). The DOX level at each time was determined by fluorescence measurement.

Series [7] deals with U87MG human glioma cells. Put plainly: therapeutic efficacy in mice bearing human glioma cells.
Description: Aged 4 to 6 weeks old, weight 18 to 20 g Balb/C mice (Shanghai Institutes for Biological Sciences Laboratory Animal Center) were collected. They were evenly divided into groups after weighting. U87MG human glioma cells of 5×10^6 cells were generated by subcutaneous injection into the hind flank of the mice. Mice were intravenously injected with cRGD20/CLPs, CLPs, targeting decross-linked nanoparticle vesicle (cRGD20/PEG-PTMC), DOX.HCl and PBSat 0, 4, 8.12 day when the tumor volume reached 30 to 50 mm^3 about two weeks, where the DOX proportion was 10 mg/kg. The tumor size was measured every two days using calipers from 0 to 18 day. The tumor size was calculated by V=(L*W*H)/2 (L was length of tumor, W was width of tumor, H was thickness of tumor). Continue to observe the survival of mice until 45 day.

Counter-ions that a name gives are not always drawn.

With `COc1cccc2c1C(=O)c1c(O)c3c(c(O)c1C2=O)C[C@@](O)(C(=O)CO)C[C@@H]3O[C@H]1C[C@H](N)[C@H](O)[C@H](C)O1` [DOX, Doxorubicin], the accumulation in tumor in series [1] (6 h) is on record as 1.05 ID %/g; in series [1] (12 h), 0.52 ID %/g; in series [1] (24 h), 0.29 ID %/g. For the same compound, the tumor growth result in series [2] is “can inhibited tumor growth”. Also, the survival rate in series [2] (10 days) is 0. The compound further had a body weight reduced in series [2] (at 7 day) of 23%. Also, the “half-lives of eliminate in mice” value in series [3] (C57BL/6 mice) is 0.21 h. For the same compound, in series [3] (at 2 h), the DOX in blood entry was “can not detection”.
`COc1cccc2c1C(=O)c1c(O)c3c(c(O)c1C2=O)C[C@@](O)(C(=O)CO)C[C@@H]3O[C@H]1C[C@H](N)[C@H](O)[C@H](C)O1` [DOX.HCl, doxorubicin hydrochloride]: the DOX in blood entry in series [4] (at 2 h) is “can not detection”. For the same compound, the half-life in series [4] (mouse, whole blood, iv, Balb/C mice, read-out: half-lives of eliminate in mice (converted)) was 16.2 min. In addition, the tumor growth result in series [5] (10 mg/kg DOX.HCl at 0, 3, 6, 9, 12 day, 20 day) is “can inhibit tumor growth”; in series [7] (10 mg/kg DOX at 0, 4, 8, 12 day, 18 day), “can inhibited tumor growth”. The “declining of body weight” value in series [5] (10 mg/kg, at 8 day) is listed as 20%; in series [7] (10 mg/kg, at 12 day), 21%. For the same compound, the survival rate in series [5] (10 days) and in series [7] (13 days) was 0 throughout. In addition, in series [6], the tissue uptake at 4 h was found to be 0.82 %ID/g.
